We go through two molecules from patent US11814352B2, “Salts formed by 2-(1-acyloxy-n-pentyl) benzoic acid and basic amino acid or aminoguanidine, and preparation method and application thereof” (JIANGSU KANION PHARMACEUTICAL CO., LTD., priority 2018, dated 2023).

Data set [1] is described as follows: Solubility test (saturated solubility in water). The class given is physicochemical. The following applies: 25±2° C. As for the experimental part: Test method: 10 mg of a test sample (solid was ground into fine powder) was weighed and added to a certain amount of solvent at 25±2° C. (the temperature of a water bath is controlled at 25° C.), and the solution was shaken vigorously for 30 s every 5 min. The dissolution was observed within 30 min. When there were no visible solute particles or droplets, the test sample was regarded as completely dissolved.

Data set [2] deals with ADP induced platelet aggregation. The data set is described as follows: In vitro anti-platelet aggregation, ADP induced (turbidimetry, PRP). The class given is cell-based, rabbits. The following applies: read-out: IC50 ADP (10 μM); rabbit PRP, inducer ADP 10 μM, 37° C. How it is done: (§1) The animals were used for experiments after 1 week.
(§2) The common carotid artery was separated, and a polyethylene tube was inserted into the common carotid artery to collect blood. […] The upper beige suspension was pipetted to obtain the platelet-rich plasma (PRP). […] The PRP was adjusted with the PPP to make the platelet count at 1×10^8/mL.
(§3) 260 μL of platelet-rich plasma (PRP) was added into a turbidimetric tube. Then 10 μL of test compounds with different concentrations, positive control drugs or normal saline were separately added, and the plasma was incubated at 37° C. for 5 min. Then 30 μL of inducers were added in sequence. The final concentration of an inducer ADP is 10 μM, and the final concentration of an inducer AA is 1 mM. […] Inhibition rate of platelet aggregation (IRPA)=(platelet aggregation rate of the control group−platelet aggregation rate of the experimental group)/platelet aggregation rate of the control group×100%.

Data set [3] deals with AA induced platelet aggregation. The data set is described as follows: In vitro anti-platelet aggregation, AA induced (turbidimetry, PRP). It counts as cell-based, rabbits. The settings on record: read-out: IC50 AA (1 mM); rabbit PRP, inducer AA 1 mM, 37° C. As for the experimental part: as §1, §2, §3
In data set [4] the test system is arteriovenous bypass thrombosis in rats. The data set can be described thus: Effect on arteriovenous bypass thrombosis in rats. The class given is in vivo, SD rats. The following applies: 10 mg/kg/day tail vein 7 days; for Dry weight of thrombus / Wet weight of thrombus: 2 h after last dose; for Inhibition rate (dry weight of thrombus) / Inhibition rate (wet weight of thrombus): vs model group. How it is done: Male SD rats, weighing 250-280 g, purchased from Beijing Vital River Laboratory Animal Technology Co., Ltd., raised in an SPF breeding environment with indoor temperature controlled at 23±2° C., and allowed to freely eat and drink. The total number of the animals is 64.
Model group: injected with the same volume of normal saline (containing 1% DMSO) through the tail vein, and administered continuously for 7 days. The test was started 2 h after the last dose (n=8).
The dose of all drugs was 10 mg/kg/day. The drugs were formulated into normal saline solutions containing 1% DMSO, and injected through the tail vein for 7 consecutive days. The test was started 2 hours after the last dose (n=8).
The rats were intraperitoneally injected with a 3% pentobarbital sodium solution (30 mg/kg). After anesthesia, the rats were immobilized in the supine position, and a median cervical incision was made to separate the right common carotid artery and left external jugular vein. A 6 cm long suture was put in the middle of a polyethylene tube (the suture needs to be weighed before being put in the tube), and the polyethylene tube was filled with heparin saline (50 U/mL). The polyethylene tube was inserted into the separated blood vessels to make the artery and vein form a loop. After 15 min of circulation of the blood flow, the suture was taken out, and the suture with thrombus was collected and weighed immediately. Then, after the suture was dried at room temperature for 24 h, the dry weight was determined. The total weight minus the weight of the suture was the wet weight of the thrombus, and the dry weight minus the weight of the suture was the dry weight of the thrombus.

The subject of another data set is MCAO rats. The data set can be described thus: Cerebral infarction, cerebral edema and nerve function of rats with focal cerebral ischemia (MCAO). It counts as in vivo, SD rats. As for the experimental part:
The total number of the animals was 88.
Sham operation group: equal volume of normal saline (containing 1% DMSO) (iv. 3 days), TTC, cerebral edema and neurological function score (n=8); […]
The middle cerebral arteries of the rats were blocked by a suture-occluded method, and reperfused after 2 h. […] All drugs were formulated into normal saline solutions containing 1% DMSO for administration, and the duration of administration was controlled at approximately 1 min. […] 2 h after the last administration, the neurological defect scores were firstly obtained, and then the rats of each group were sacrificed. The whole brains were taken out and weighed (wet weight), TTC stained, and dried to determine the effects of the compounds on cerebral infarction and cerebral edema.
2 h after the last administration, the neurological defects of the animals were graded and scored by the Longa's method.
After the neurobehavioral examination was completed, four coronal incisions were made on the whole brains of the rats on the optic chiasma and 2 mm anteroposterior positions of the optic chiasma. After the whole brains were cut into five slices, the brain slices were quickly placed in 5 ml of phosphate buffer solution containing 2% TTC, and incubated at 37° C. in the dark. In the incubation process, the brain slices were turned once every 5 min. After 10 min of incubation, the brain slices were taken out and pictures were taken with a digital camera (Olympus C-4000, Japan).
The calculation formula of brain water content is as follows: Water content of brain tissue (%)=(wet weight of brain tissue−dry weight of brain tissue)/wet weight of brain tissue×100%; Cerebral edema rate (%)=water content of brain tissue of each group (%)−water content of brain tissue of sham operation group (%)/water content of brain tissue of sham operation group (%)×100%; Inhibition rate of cerebral edema (%)=(rate of cerebral edema of model group (%)−rate of cerebral edema of administration group (%))/rate of cerebral edema of model group (%)×100%.

The conditions of data set [5]: literature value; cited from earlier work.
Data set [6] in a line: Pharmacokinetics of metabolites in rat plasma after intravenous injection of I1s. The class given is in vivo, SD male rats. The following applies: metabolite in rat plasma after I1s 25 mg/kg tail vein; rats 1-3; listed as M4. How it is done: (§4) 12 clean SD male rats, provided by Qinglongshan Animal Breeding Farm in Jiangning District, Nanjing. The production license number is SCXK (Jiangsu) 2017-0001. The body weight of the rats ranges from 180 to 220 g. The rats were used after being raised in the laboratory of an experimental animal center for 2 days after purchase, fasted for 12 hours before administration and 6 hours after administration, and were allowed to freely drink during the test period.
(§5) The concentration of the original drugs and metabolites in the rat blood were determined by LC-MS/MS, and WinNonlin pharmacokinetics professional software and a statistical moment method were used for calculation to obtain the corresponding pharmacokinetic parameters.

The nature of data set [7]: Concentration of metabolites in rat brain tissue after intravenous injection of I1s. It counts as in vivo. The following applies: for Concentration in brain tissue (single rats): listed as M4. As for the experimental part: as §4, §5
Assay in data set [8]: as above
It counts as in vivo.

Data set [9] concerns the target hERG potassium channel of CHO-hERG cells (Homo sapiens, UniProt Q12809). The data set can be described thus: Effect on hERG potassium channel (automatic patch clamp). The settings on record: CHO-hERG cells, maximum concentration. In general terms: Block of hERG is tested as a sign of cardiac risk.
[10] abbreviates: MCAO rats, 10 mg/kg/day iv 3 days (combinations equimolar), first dose 2 h after reperfusion.
[11] abbreviates: 0.5 h after intravenous injection of I1s.
[12] abbreviates: 1 h after intravenous injection of I1s.
Setting [13] is: 6 h after intravenous injection of I1s.

Molecules are shown by their SMILES. Where “and” joins values, the source holds several entries; their conditions need not be identical. Equal values may be shown once. Marks after values point to notes of the source that are not given here.

Sequence of hERG potassium channel of CHO-hERG cells (Q12809 whole entry, the tested form may be a part): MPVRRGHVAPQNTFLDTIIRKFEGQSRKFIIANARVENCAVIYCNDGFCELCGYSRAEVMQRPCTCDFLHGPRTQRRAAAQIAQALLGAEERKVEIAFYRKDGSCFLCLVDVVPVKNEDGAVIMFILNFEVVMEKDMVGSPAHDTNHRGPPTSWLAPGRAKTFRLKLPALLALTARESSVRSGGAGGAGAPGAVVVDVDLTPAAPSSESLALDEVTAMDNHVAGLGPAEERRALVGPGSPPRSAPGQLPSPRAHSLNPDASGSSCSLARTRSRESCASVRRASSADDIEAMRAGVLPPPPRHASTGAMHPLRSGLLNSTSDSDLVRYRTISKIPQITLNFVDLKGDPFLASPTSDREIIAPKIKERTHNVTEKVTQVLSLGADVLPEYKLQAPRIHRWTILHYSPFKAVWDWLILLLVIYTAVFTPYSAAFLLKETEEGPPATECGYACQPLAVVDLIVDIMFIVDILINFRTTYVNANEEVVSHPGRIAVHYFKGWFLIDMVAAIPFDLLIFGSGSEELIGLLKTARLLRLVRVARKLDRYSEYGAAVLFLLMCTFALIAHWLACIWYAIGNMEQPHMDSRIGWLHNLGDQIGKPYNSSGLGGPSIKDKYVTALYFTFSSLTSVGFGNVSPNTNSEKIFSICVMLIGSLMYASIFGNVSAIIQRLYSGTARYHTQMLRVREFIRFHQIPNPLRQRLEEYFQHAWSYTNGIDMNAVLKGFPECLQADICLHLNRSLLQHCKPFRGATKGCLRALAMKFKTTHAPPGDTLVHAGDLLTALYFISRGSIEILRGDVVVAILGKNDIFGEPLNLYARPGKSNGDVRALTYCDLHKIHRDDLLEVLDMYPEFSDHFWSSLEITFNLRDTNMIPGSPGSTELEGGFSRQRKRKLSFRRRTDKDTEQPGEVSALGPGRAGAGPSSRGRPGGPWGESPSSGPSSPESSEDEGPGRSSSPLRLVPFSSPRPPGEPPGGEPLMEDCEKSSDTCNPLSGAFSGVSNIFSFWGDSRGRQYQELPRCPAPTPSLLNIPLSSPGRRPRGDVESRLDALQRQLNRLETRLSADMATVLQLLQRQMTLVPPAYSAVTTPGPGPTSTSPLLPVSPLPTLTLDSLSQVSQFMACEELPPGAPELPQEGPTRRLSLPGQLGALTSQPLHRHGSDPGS

What is called IC50 is the concentration that gives 50% inhibition. As a reminder, the half-life is the time needed for the level to fall by half in the phase considered. For `CCCCC(O)c1ccccc1C(=O)[O-].[K+]` (racemic) [PHPB, Potassium (R/S)-2-(1-hydroxy-n-pentyl) benzoate], in data set [1], the “Saturated solubility in H2O, Mean” value is 147.07 mg/mL; the “Saturated solubility in H2O, dissolved sample amount (single determinations)” value is 148.30 mg/mL and 148.04 mg/mL and 145.97 mg/mL and 145.98 mg/mL. Also, the IC50 in data set [2] came to 960 ± 70 µM. The IC50 in data set [3] was found to be 350 ± 90 µM. Moreover, in [4], the “Dry weight of thrombus” value came to 8.90 ± 0.45, the “Wet weight of thrombus” value was found to be 30.64 ± 10.21, the “Inhibition rate (dry weight of thrombus)” value is reported as 11.32% and the “Inhibition rate (wet weight of thrombus)” value is on record as 15.39%. For the same molecule, in the data set on MCAO rats (setting [10]), the Cerebral edema came out at 10.71 ± 3.55%, the Infarct volume was 20.23 ± 3.02%, the “Inhibition rate of cerebral edema” value is listed as 33.23% and the “Inhibition rate of infarct volume” value was determined as 51.66%. For the same molecule, in data set [5], the half-life is listed as 45 min.

As a reminder, the AUC(0-t) is exposure summed from dosing to a finite time, without extrapolation to infinity. As usually defined, the Cmax is the peak of the concentration-time curve. In general, Vz refers to a proportionality between amount in the body and measured concentration, not a real space. Turning to `CCCC[C@@H]1OC(=O)c2ccccc21` [(S)-NBP, (S)-butylphthalide], the “Saturated solubility in H2O, Mean” value in data set [1] came to 0.54 mg/mL. Further, in data set [2], the IC50 worked out at 1290 ± 110 µM. Also, the IC50 in [3] turned out to be 500 ± 40 µM. In addition, in data set [4], the “Dry weight of thrombus” value came out at 7.44 ± 0.37, the “Wet weight of thrombus” value was 24.18 ± 1.02, the “Inhibition rate (dry weight of thrombus)” value is given as 25.95^## % and the “Inhibition rate (wet weight of thrombus)” value is 33.24^## %. Besides, in the data set with MCAO rats (rat, in vivo, iv, 10 mg/kg/day), the Cerebral edema is reported as 4.45 ± 4.58%, the Infarct volume is 14.18 ± 2.69%, the “Inhibition rate of cerebral edema” value was determined as 72.28% and the “Inhibition rate of infarct volume” value stood at 66.12%. Further, in data set [6], the “AUC(0-t)” value was 32828.9 ng·h/mL and 40061.1 ng·h/mL and 34160.8 ng·h/mL; the “AUC(0-∞)” value is 32988.3 ng·h/mL and 40153.8 ng·h/mL and 34287.8 ng·h/mL; the Cl is 12.631 mL/min/kg and 10.377 mL/min/kg and 12.152 mL/min/kg; the Cmax is 52.5136 µg/mL and 69.7952 µg/mL and 65.7002 µg/mL. Further, the Vz in data set [6] was 3.704 L/kg and 2.6838 L/kg and 3.6105 L/kg. The “Concentration in brain tissue (single rats)” value (“Concentration … (single rats)” below) in data set [7] (setting [11]) is 556.35 ng/g and 627.76 ng/g and 633.25 ng/g. Moreover, in [7] (setting [12]), the “Concentration … (single rats)” value was 131.66 ng/g and 119.84 ng/g and 388.42* ng/g. In addition, the “Concentration … (single rats)” value in [7] (setting [13]) was 27.06 ng/g and 30.85 ng/g and 51.78 ng/g. In addition, the “Passage through the blood-brain barrier” value in data set [7] (detected in rat brain tissue after iv I1s) is listed as “could all pass through the blood-brain barrier”. In [8] (setting [11]), the “Concentration in brain tissue, Mean” value amounted to 605.79 ng/g. In addition, the “Concentration in brain tissue, Mean” value in data set [8] (setting [12]) stood at 125.75 ng/g. Further, in data set [8] (setting [13]), the “Concentration in brain tissue, Mean” value turned out to be 36.56 ng/g. In data set [9], the “inhibition rate of hERG potassium channel at the maximum concentration” value was 41.45%.
